This note sets out measurements from patent US20250017964A1, “ENGINEERING OR INDUCING PDGF AND/OR PDGFR SIGNALING TO ENHANCE NK CELL THERAPY” (City of Hope, priority 2021, published 2025).

This assay deals with NK cells. Description: Annexin V and Ki67 staining of NK cells in vitro. In kind it is cell-based, human. Particulars: PDGF-D 50 ng/ml 48 h without IL-15. The procedure: FIGS. 4A-4J. PDGFRβ promotes IL-15-mediated NK cell survival in vitro and in vivo. (A) 5×10^5 sorted PDGFRβ^+ (Pos) and PDGFRβ^− (Neg) NK cells were cultured in vitro for 7 days in the presence of IL-15 (10 ng/ml). The cells were counted via trypan blue exclusion assay on days 3, 5, and 7 (n=5). (B and C) On day 7, Ki67 levels in PDGFRβ^+ and PDGFRβ^− NK cells were determined by flow cytometry (n=5). (D and E) Annexin V levels in PDGFRβ^+ and PDGFRβ^− NK cells on day 7 were determined by flow cytometry (n=5). (H-J) 1×10^7 sorted PDGFRβ^+ or PDGFRβ^− IL-15-transduced NK cells were injected into NOD/SCID/IL-2rg (NSG) mice. Blood samples were collected for analysis at the indicated time after adoptive transfer. Data shown are representative dot plots on day 9 after adoptive transfer (H), percentages (I), and absolute numbers (J) of PDGFRβ^+ and PDGFRβ^− NK cells on days 3, 6, and 9 after adoptive transfer (n=5). Data represent three independent experiments. […]
FIGS. 6A-6M. […] Cells were counted on days 3, 5, and 7 (n=3). […] Cells were counted on days 3, 5, and 7 (n=3). […] The cells were counted by trypan exclusion assay on days 3, 5, and 7 (n=3). […] Cells were counted by trypan exclusion assay on days 3, 5, and 7 (n=3). […] Cells were counted by trypan exclusion assay on days 3, 5, and 7 (n=3). […] Cell apoptosis and proliferation were analyzed by annexin V staining (J) and Ki-67 staining (K), respectively. […]

Take “PDGF-D: recombinant human PDGF-DD (1159-SB-025), R&D Systems”: the “NK cell proliferation (Ki67)” value is listed as “did not affect NK cell proliferation”. The “apoptosis of PDGFRβ^+ NK cells (annexin V)” value (IL-15-pretreated sorted cells) is “inhibited apoptosis”.
